System: ABCC2 (MRP2)
Assay: ABCC2 mRNA expression (real-time PCR)
Format: cell-based, human
Conditions: 10 µM, 48 h, without doxorubicin
Experimental: The A2780/DOX cell line was seeded into 5 cm Petri dishes with DMEM medium at 1 × 10^5 cell/mL. […] After 48 h of treatment, the cells were washed with PBS and harvested using the standard trypsin-EDTA procedure. The harvested cells were centrifuged (3200× g; 10 min, 4 °C). The supernatant was discarded, and the pellets were washed with 1.5 mL of cooled PBS (5400× g; 10 min, 4 °C). The washing step was repeated with 1 mL of PBS and the cells were centrifuged again (10,000× g; 3 min, 4 °C). Afterwards, the pellets were resuspended in 1 mL of Trizol (Invitrogen, Carlsbad, CA, USA) and transferred into pre-cooled RNase-free microfuge tubes. The samples were stored at −80 °C.
A Quant-iT RiboGreen RNA Assay Kit (Invitrogen) was used to determine the RNA concentration using the Infinite M200 plate reader (Tecan, Männedor, Switzerland). The cDNA was prepared from 0.5 µg of total RNA using a RevertAid First Strand Synthesis cDNA Kit (MBI Fermentas, Vilnius, Lithuania). The amplification of the ubiquitin C gene fragment was used to determine the quality of cDNA.
The experiment was performed using the ViiA7 Real-Time polymerase chain reaction (PCR) System (Life Technologies, Camarillo, CA, USA) with a 384-well block. Before quantitative real-time PCR, the master mix was prepared by mixing 2 µL of 8 × diluted cDNA, 1.75 µL of RNase free water, 1 µL of 5 × HotFIREPol Probe quantitative PCR Mix Plus (Solis Biodyne, Tartu, Estonia) and 0.25 µL of specific 20 × TaqMan Gene Expression Assay (Life Technologies), giving 5 µL of final reaction volume. […] After each extension phase, the fluorescence values were acquired. Duplicate samples were used for measurement and samples with a standard deviation of duplicates > 1.0 cycle threshold (Ct) were re-analyzed. The real time PCR procedure was maintained according to MIQE (Minimum information for publication of quantitative real-time PCR experiments) guidelines. […]

COc1cc([C@@H]2Oc3cc([C@H]4Oc5cc(O)cc(O)c5C(=O)[C@@H]4O)ccc3O[C@H]2CO)ccc1O [Silybin B, silybin B]
downregulation of ABCC2 (MRP2) expression: 66%
ABCC2 Expression Difference (A2780/DOX): 0.341
ABCC2 Treated vs. Untreated (A2780/DOX): DOWN
